Consider three compounds from patent US6440660B1 (priority 1995, dated 2002).

The structures appear in SMILES notation. Values after ≈ are worked out from the molar mass of the structure shown.

One assay deals with P. falciparum W2. Particulars: strain W2; cited from earlier work.
Assay [1] deals with P. falciparum field isolate TM335. To be noted: cited from earlier work.
For assay [2], the system named is P. falciparum field isolate PR145. To be noted: cited from earlier work.
The test system of assay [3] is P. falciparum field isolate TM336. To be noted: strain TM336; cited from earlier work.
The subject of assay [4] is P. falciparum field isolate TM352. Particulars: strain TM352; cited from earlier work.
The test system of assay [5] is W2mef parasites (resistant to mefloquine). Nature of the assay: Mefloquine resistance reversal study, W2mef (FIGS. 2, 3, 5). It counts as cell-based, P. falciparum. Particulars: mefloquine alone without oligonucleotide, below threshold mefloquine concentration.
The subject of another assay is P. falciparum W2mef. Particulars: strain W2mef; cited from earlier work.
Assay [6] concerns P. falciparum field isolate TM346. To be noted: cited from earlier work.

For the compound `C=C[C@H]1C[N@@]2CC[C@H]1C[C@H]2[C@H](O)c1ccnc2ccc(OC)cc12` [quinine], the IC50 with P. falciparum W2 was 74 ng/mL (≈ 0.228 µM); in assay [1], 65 ng/mL (≈ 0.2 µM); in assay [2], 90 ng/mL (≈ 0.277 µM); in assay [3], 87 ng/mL (≈ 0.268 µM); in assay [4], 1.2 ng/mL (≈ 0.0037 µM).

Regarding `OC(c1cc(C(F)(F)F)nc2c(C(F)(F)F)cccc12)C1CCCCN1` (stereo not shown) [mefloquine], in assay [5], the “3H-hypoxanthine incorporated on average” value is 11,000 cpm. Besides, the IC50 is 16 ng/mL (≈ 0.0423 µM) with P. falciparum W2mef; 2 ng/mL (≈ 0.00529 µM) with P. falciparum W2; 6 ng/mL (≈ 0.0159 µM) in assay [1]; 10 ng/mL (≈ 0.0264 µM) in assay [2]; 15 ng/mL (≈ 0.0396 µM) in assay [3]; 20 ng/mL (≈ 0.0529 µM) in assay [6]. The IC50 in assay [4] is 22 ng/mL (≈ 0.0582 µM).

`CCCCN(CCCC)CCC(O)c1cc2c(Cl)cc(Cl)cc2c2cc(C(F)(F)F)ccc12` (stereo not shown) [halofantrine]: the IC50 in the assay with P. falciparum W2 is 0.3 ng/mL (≈ 0.000599 µM); in assay [1] it was 0.61 ng/mL (≈ 0.00122 µM); in assay [2], 2.0 ng/mL (≈ 0.004 µM); in assay [3] it was 2.8 ng/mL (≈ 0.0056 µM); in assay [6] it was 3.7 ng/mL (≈ 0.00739 µM); in assay [4], 3.0 ng/mL (≈ 0.00599 µM).
